# Source: ChEMBL document CHEMBL1150472, “Synthesis and immunoregulating activity of vitamin D analogues bearing pregnane side chains” (Bioorg Med Chem Lett, 1992)
# Tested on: Rattus norvegicus
# Test: Compound was tested in ratsdeficient in vitamin D at a dose of 125 ug/kg i.v.; NE denotes no effect was observed on bone calcium mobilization (BCM) and intestinal calcium absorption (ICA)
# Format: functional, organism-based
smiles,measurement,value
C=C1/C(=C\C=C2/CCC[C@@]3(C)C2CC[C@@H]3C(C)=O)CC(O)C[C@@H]1O (stereo partly specified),Activity,No effect
